# Experimental data published in US20260285855A1, “HETEROARYL DERIVATIVES AS DDRS INHIBITORS” (CHIESI FARMACEUTICI S.P.A., priority 2023, published 2026).
# Key:
# [1] = target: T1, DDR1 (Homo sapiens, UniProt Q08345); test: LanthaScreen Europium Kinase Binding assay, DDR1; settings: 5 nM DDR1, 20 nM Kinase Tracer 178, 1 h at rt; Ki from IC50 by Cheng-Prusoff; read-out: Ki DDR1
# T1 construct: purchased Carna Biosciences
# Protocol: (§1) DDR1 and DDR2 binding assays were performed using Life Technologies LanthaScreen™ Europium Kinase Binding assay. […] IC50 values were determined in GraphPad Prism 7.0 software, using 4 parameter model: log (inhibitor) vs. response. IC50 values were converted in Ki using the Cheng-Prusoff equation (Ki-IC50/(1+ [Tracer]/Kd).
# [2] = target: T2, DDR2 (Homo sapiens, UniProt Q16832); test: LanthaScreen Europium Kinase Binding assay, DDR2; settings: 5 nM DDR2, 10 nM Kinase Tracer 178, 1 h at rt; Ki from IC50 by Cheng-Prusoff; read-out: Ki DDR2
# T2 construct: purchased Life Technologies
# T2 sequence (Q16832 22-855): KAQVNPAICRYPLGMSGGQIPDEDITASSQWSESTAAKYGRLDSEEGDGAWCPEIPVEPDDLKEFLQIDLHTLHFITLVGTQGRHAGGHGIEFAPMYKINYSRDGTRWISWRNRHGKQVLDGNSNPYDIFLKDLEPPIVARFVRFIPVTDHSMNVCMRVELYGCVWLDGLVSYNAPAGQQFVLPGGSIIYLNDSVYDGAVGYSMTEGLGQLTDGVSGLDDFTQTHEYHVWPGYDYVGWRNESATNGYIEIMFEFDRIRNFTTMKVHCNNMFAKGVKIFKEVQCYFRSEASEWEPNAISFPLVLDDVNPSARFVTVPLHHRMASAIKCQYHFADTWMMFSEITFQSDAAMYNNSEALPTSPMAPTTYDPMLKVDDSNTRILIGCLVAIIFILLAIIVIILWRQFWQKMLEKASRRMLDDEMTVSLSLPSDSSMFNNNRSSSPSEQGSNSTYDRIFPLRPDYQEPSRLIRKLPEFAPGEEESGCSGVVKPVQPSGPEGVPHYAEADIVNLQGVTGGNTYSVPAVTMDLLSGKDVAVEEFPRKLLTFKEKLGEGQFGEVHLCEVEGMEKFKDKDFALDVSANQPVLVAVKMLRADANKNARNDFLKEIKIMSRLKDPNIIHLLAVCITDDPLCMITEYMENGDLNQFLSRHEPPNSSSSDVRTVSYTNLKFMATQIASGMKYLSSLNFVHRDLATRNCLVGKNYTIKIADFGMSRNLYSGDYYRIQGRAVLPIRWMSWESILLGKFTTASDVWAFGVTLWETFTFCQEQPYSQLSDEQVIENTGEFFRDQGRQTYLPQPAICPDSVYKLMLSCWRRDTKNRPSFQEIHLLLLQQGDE
# Protocol: as §1
# T1 sequence (Q08345 19-913): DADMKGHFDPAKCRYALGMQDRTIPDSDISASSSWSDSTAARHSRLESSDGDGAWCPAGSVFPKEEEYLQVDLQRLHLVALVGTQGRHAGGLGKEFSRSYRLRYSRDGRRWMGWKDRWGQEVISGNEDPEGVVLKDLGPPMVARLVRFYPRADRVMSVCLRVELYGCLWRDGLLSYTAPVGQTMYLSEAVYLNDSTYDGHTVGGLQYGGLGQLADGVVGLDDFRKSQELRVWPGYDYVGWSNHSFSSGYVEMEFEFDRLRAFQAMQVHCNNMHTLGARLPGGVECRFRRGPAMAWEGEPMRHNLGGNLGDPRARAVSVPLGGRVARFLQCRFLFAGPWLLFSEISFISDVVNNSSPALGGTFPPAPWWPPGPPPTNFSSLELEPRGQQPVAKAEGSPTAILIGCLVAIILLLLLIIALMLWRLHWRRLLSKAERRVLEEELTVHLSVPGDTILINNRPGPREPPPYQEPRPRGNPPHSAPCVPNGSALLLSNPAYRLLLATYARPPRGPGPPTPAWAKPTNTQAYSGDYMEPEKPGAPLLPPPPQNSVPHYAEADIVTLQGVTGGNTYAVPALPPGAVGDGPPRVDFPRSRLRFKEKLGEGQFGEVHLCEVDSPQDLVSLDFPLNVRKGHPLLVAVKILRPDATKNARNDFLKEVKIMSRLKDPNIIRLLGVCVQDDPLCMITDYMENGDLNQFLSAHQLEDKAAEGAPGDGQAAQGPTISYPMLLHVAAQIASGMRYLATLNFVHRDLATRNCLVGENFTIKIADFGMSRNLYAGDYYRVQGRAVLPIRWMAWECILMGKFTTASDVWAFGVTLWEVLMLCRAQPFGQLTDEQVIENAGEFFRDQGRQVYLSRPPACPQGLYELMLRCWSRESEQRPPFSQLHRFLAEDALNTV
Ki [1] [nM],Ki [2] [nM],SMILES
< 5,5 to 25,"Cc1ccc(-n2nc(C(C)(C)C)cc2NC(=O)NC2CC3(C2)CN(C(=O)c2cnn4ccsc24)C3)cc1 [Example 80, 1-(3-(tert-butyl)-1-(p-tolyl)-1H-pyrazol-5-yl)-3-(2-(pyrazolo[5,1-b]thiazole-7-carbonyl)-2-azaspiro[3.3]heptan-6-yl)urea]"
< 5,5 to 25,"COc1ccc(OC(F)(F)F)cc1NC(=O)N(C)C1CC2(C1)CN(C(=O)c1cnn3ccc(N4CCN(C)CC4)cc13)C2 [Example 81, 3-(2-methoxy-5-(trifluoromethoxy)phenyl)-1-methyl-1-(2-(5-(4-methylpiperazin-1-yl)pyrazolo[1,5-a]pyridine-3-carbonyl)-2-azaspiro[3.3]heptan-6-yl)urea]"
< 5,5 to 25,"Cc1ccc(-n2nc(C(C)(C)C)cc2NC(=O)NC2CC3(C2)CN(C(=O)c2ncnc4ccsc24)C3)cc1 [Example 82, 1-(3-(tert-butyl)-1-(p-tolyl)-1H-pyrazol-5-yl)-3-(2-(thieno[3,2-d]pyrimidine-4-carbonyl)-2-azaspiro[3.3]heptan-6-yl)urea]"
< 5,5 to 25,"COc1ncc(Cl)cc1NC(=O)NC1CC2(C1)CN(C(=O)c1cnn3ccn(C)c13)C2 [Example 83, 1-(5-chloro-2-methoxypyridin-3-yl)-3-(2-(1-methyl-1H-imidazo[1,2-b]pyrazole-7-carbonyl)-2-azaspiro[3.3]heptan-6-yl)urea]"
< 5,5 to 25,"CN1CCN(c2ccn3ncc(C(=O)N4CC5(CC(NC(=O)Nc6cccc(C(F)(F)F)c6)C5)C4)c3c2)CC1 [Example 84, 1-(2-(5-(4-methylpiperazin-1-yl)pyrazolo[1,5-a]pyridine-3-carbonyl)-2-azaspiro[3.3]heptan-6-yl)-3-(3-(trifluoromethyl)phenyl)urea]"
< 5,5 to 25,"CCN(C(=O)Nc1cccc(C(F)(F)F)c1)C1CC2(C1)CN(C(=O)c1cnn3ccn(C)c13)C2 [Example 85, 1-ethyl-1-(2-(1-methyl-1H-imidazo[1,2-b]pyrazole-7-carbonyl)-2-azaspiro[3.3]heptan-6-yl)-3-(3-(trifluoromethyl)phenyl)urea]"
< 5,5 to 25,"CCN(C(=O)Nc1cc(F)cc(C(F)(F)F)c1)C1CC2(C1)CN(C(=O)c1cnn3ccn(C)c13)C2 [Example 86, 1-ethyl-3-(3-fluoro-5-(trifluoromethyl)phenyl)-1-(2-(1-methyl-1H-imidazo[1,2-b]pyrazole-7-carbonyl)-2-azaspiro[3.3]heptan-6-yl)urea]"
< 5,5 to 25,"CN1CCN(c2ccn3ncc(C(=O)N4CC5(CC(NC(=O)Nc6cc(C#N)cc(C(F)(F)F)c6)C5)C4)c3c2)CC1 [Example 87, 1-(3-cyano-5-(trifluoromethyl)phenyl)-3-(2-(5-(4-methylpiperazin-1-yl)pyrazolo[1,5-a]pyridine-3-carbonyl)-2-azaspiro[3.3]heptan-6-yl)urea]"
< 5,5 to 25,"O=C(Nc1cccc(C(F)(F)F)c1)NC1CC2(C1)CN(C(=O)c1ncnc3sccc13)C2 [Example 88, 1-(2-(thieno[2,3-d]pyrimidine-4-carbonyl)-2-azaspiro[3.3]heptan-6-yl)-3-(3-(trifluoromethyl)phenyl)urea]"
< 5,< 5,"O=C(Nc1cccc(OC(F)F)c1)NC1CC2(C1)CN(C(=O)c1ncnc3ccsc13)C2 [Example 89, 1-(3-(difluoromethoxy)phenyl)-3-(2-(thieno[3,2-d]pyrimidine-4-carbonyl)-2-azaspiro[3.3]heptan-6-yl)urea]"
< 5,< 5,"O=C(Nc1cc(C(F)(F)F)ccn1)NC1CC2(C1)CN(C(=O)c1ncnc3ccsc13)C2 [Example 90, 1-(2-(thieno[3,2-d]pyrimidine-4-carbonyl)-2-azaspiro[3.3]heptan-6-yl)-3-(4-(trifluoromethyl)pyridin-2-yl)urea]"
< 5,5 to 25,"COc1ccc(OC(F)F)cc1NC(=O)NC1CC2(C1)CN(C(=O)c1cnn3ccn(C)c13)C2 [Example 91, 1-(5-(difluoromethoxy)-2-methoxyphenyl)-3-(2-(1-methyl-1H-imidazo[1,2-b]pyrazole-7-carbonyl)-2-azaspiro[3.3]heptan-6-yl)urea]"
< 5,< 5,"Cn1ccn2ncc(C(=O)N3CC4(CC(NC(=O)Nc5cc(OC(F)(F)F)ccc5Cl)C4)C3)c12 [Example 92, 1-(2-chloro-5-(trifluoromethoxy)phenyl)-3-(2-(1-methyl-1H-imidazo[1,2-b]pyrazole-7-carbonyl)-2-azaspiro[3.3]heptan-6-yl)urea]"
< 5,< 5,"O=C(Nc1cccc(C(F)(F)F)c1)NC1CC2(C1)CN(C(=O)c1ccnc3[nH]ncc13)C2 [Example 93, 1-(2-(1H-pyrazolo[3,4-b]pyridine-4-carbonyl)-2-azaspiro[3.3]heptan-6-yl)-3-(3-(trifluoromethyl)phenyl)urea]"
< 5,5 to 25,"CN(C(=O)Nc1cc(CO)cc(C(F)(F)F)c1)C1CC2(C1)CN(C(=O)c1cnn3ccsc13)C2 [Example 94, 3-(3-(hydroxymethyl)-5-(trifluoromethyl)phenyl)-1-methyl-1-(2-(pyrazolo[5,1-b]thiazole-7-carbonyl)-2-azaspiro[3.3]heptan-6-yl)urea]"
< 5,< 5,"O=C(Nc1cccc(C(F)(F)F)c1)NC1CC2(C1)CN(C(=O)c1cnc3sccn13)C2 [Example 96, 1-(2-(imidazo[2,1-b]thiazole-5-carbonyl)-2-azaspiro[3.3]heptan-6-yl)-3-(3-(trifluoromethyl)phenyl)urea]"
< 5,< 5,"O=C(Nc1cc(OC(F)(F)F)ccn1)NC1CC2(C1)CN(C(=O)c1cnn3ccsc13)C2 [Example 97, 1-(2-(pyrazolo[5,1-b]thiazole-7-carbonyl)-2-azaspiro[3.3]heptan-6-yl)-3-(4-(trifluoromethoxy)pyridin-2-yl)urea]"
< 5,< 5,"CN(C(=O)Nc1cccc(S(F)(F)(F)(F)F)c1)C1CC2(C1)CN(C(=O)c1cnn3ccn(C)c13)C2 [Example 98, 1-methyl-1-(2-(1-methyl-1H-imidazo[1,2-b]pyrazole-7-carbonyl)-2-azaspiro[3.3]heptan-6-yl)-3-(3-(pentafluoro-16-sulfaneyl)phenyl)urea]"
< 5,< 5,"Cc1cc2ncnc(C(=O)N3CC4(CC(NC(=O)Nc5cccc(C(F)(F)F)c5)C4)C3)c2s1 [Example 99, 1-(2-(6-methylthieno[3,2-d]pyrimidine-4-carbonyl)-2-azaspiro[3.3]heptan-6-yl)-3-(3-(trifluoromethyl)phenyl)urea]"
< 5,5 to 25,"Cn1nc(NC(=O)NC2CC3(C2)CN(C(=O)c2ncnc4ccsc24)C3)cc1C(C)(C)C [Example 100, 1-(5-(tert-butyl)-1-methyl-1H-pyrazol-3-yl)-3-(2-(thieno[3,2-d]pyrimidine-4-carbonyl)-2-azaspiro[3.3]heptan-6-yl)urea]"
< 5,< 5,"O=C(Nc1cc(OC(F)(F)F)ccn1)NC1CC2(C1)CN(C(=O)c1ncnc3ccsc13)C2 [Example 101, 1-(2-(thieno[3,2-d]pyrimidine-4-carbonyl)-2-azaspiro[3.3]heptan-6-yl)-3-(4-(trifluoromethoxy)pyridin-2-yl)urea]"
